Source: patent US20060014717A1, “Therapeutic compositions for use in prophylaxis or treatment of diarrheas” (priority 2002, published 2006)

Tests used:
H. canis CCUG 33835 = assay: Binding of 35S-labeled Helicobacter species to glycosphingolipids on thin-layer chromatograms; set-up: species or system Helicobacter canis; key: + denotes a significant darkening on the autoradiogram when 2 μg (or 40 μg in the case of the last sample) was applied to TLC plates; − denotes no binding; settings: 2 μg (40 μg for the glycosphingolipid fraction) on TLC plates
Text: (§1) Gastric species examined in the present study included, Helicobacter mustelae ferret isolates from the National Collection of Type Cultures (NCTC) and the Culture Collection of the University of Gothenberg (CCUG), NCTC 12198/CCUG 25175 (equivalent strains from different sources tested), CCUG 23950 and CCUG 23951, Helicobacterfelis CCUG 28539 from a cat, in addition, H. pylori strains CCUG 17874, CCUG 17875 and a clinical isolate 119/95 were used. Enterohepatic helicobacters of animal origin were purchased from the CCUG including, Helicobacter canes CCUG 33835, Helicobacter bilis CCUG 38995, Helicobacter hepaticus CCUG 33637, and Helicobacterfennelliae (CCUG 18820).
(§2) Binding of Helicobacter spp. to glycosphingolipids, both acid and non-acidfractions. Glycosphingolipids were isolated by standard procedures (Karlsson, 1987). The identity of the purified glycosphingolipids was confirmed by mass spectrometry (Samuelsson et al., 1990), proton NMR spectroscopy (Koerner et al., 1983) and degradation studies (Stellner et al., 1973; Yang and Hakomori, 1971).
(§3) Mixtures of glycosphingolipids (40 μg/lane) or pure compounds (2 μg/lane) were subsequently separated using thin-layer chromatography (TLC) on glass- or aluminum-backed silica gel 60 HPTLC plates (Merck, Darmstadt, Germany), with chloroform/methanot/water (60:35:8, by volume) as solvent system. Chemical detection was accomplished by anisaldehyde (Waldi, 1962). Helicobacter spp. were subjected to ^35S-labeling (Angstrom et al., 1998) and suspended in PBS (10^8 CFU/ml) with a specific activity of approximately 1 cpm per 100 organisms. Binding of the labeled-bacteria to glycosphingolipids separated by TLC was achieved using a bacterial-overlay technique coupled with autoradiography detection using XAR-5 X-ray films (Eastman Kodak, Rochester, N.Y.) as previously described (Hansson et al., 1985).

H. hepaticus CCUG 33637 = assay: as above; set-up: species or system Helicobacter hepaticus; key: + denotes a significant darkening on the autoradiogram when 2 μg (or 40 μg in the case of the last sample) was applied to TLC plates; − denotes no binding; settings: 2 μg (40 μg for the glycosphingolipid fraction) on TLC plates
Text: as §1, §2, §3

H. pylori CCUG 17875 = assay: as above; set-up: species or system Helicobacter pylori; key: + denotes a significant darkening on the autoradiogram when 2 μg (or 40 μg in the case of the last sample) was applied to TLC plates; − denotes no binding; settings: 2 μg (40 μg for the glycosphingolipid fraction) on TLC plates
Text: as §1, §2, §3

H. pylori CCUG 17874 = assay: as above; set-up: species or system Helicobacter pylori; key: + denotes a significant darkening on the autoradiogram when 2 μg (or 40 μg in the case of the last sample) was applied to TLC plates; − denotes no binding; settings: 2 μg (40 μg for the glycosphingolipid fraction) on TLC plates
Text: as §1, §2, §3

H. bilis CCUG 38995 = assay: as above; set-up: species or system Helicobacter bilis; key: + denotes a significant darkening on the autoradiogram when 2 μg (or 40 μg in the case of the last sample) was applied to TLC plates; − denotes no binding; settings: 2 μg (40 μg for the glycosphingolipid fraction) on TLC plates
Text: as §1, §2, §3

H. felis CCUG 28539 = assay: as above; set-up: species or system Helicobacter felis; key: + denotes a significant darkening on the autoradiogram when 2 μg (or 40 μg in the case of the last sample) was applied to TLC plates; − denotes no binding; settings: 2 μg (40 μg for the glycosphingolipid fraction) on TLC plates
Text: as §1, §2, §3

H. mustelae 25715 = assay: as above; set-up: species or system Helicobacter mustelae; key: + denotes a significant darkening on the autoradiogram when 2 μg (or 40 μg in the case of the last sample) was applied to TLC plates; − denotes no binding; settings: 2 μg (40 μg for the glycosphingolipid fraction) on TLC plates
Text: as §1, §2, §3

[1] = tested on: H. mustelae CCUG 23950 & 23951; assay: as above; set-up: species or system Helicobacter mustelae; key: + denotes a significant darkening on the autoradiogram when 2 μg (or 40 μg in the case of the last sample) was applied to TLC plates; − denotes no binding; settings: 2 μg (40 μg for the glycosphingolipid fraction) on TLC plates
Text: as §1, §2, §3

[2] = tested on: an ETEC and an EPEC strain; settings: cited from earlier work
EPEC strain = settings: listed in decreasing order of activity; cited from earlier work
[3] = tested on: gastric and enterohepatic Helicobacter spp.; assay: Binding of Helicobacter spp. to glycosphingolipids (statements for several species)
Text: as §1, §2, §3

diarrheagenic E. coli = assay: Comparison of binding to dilution series of sialyl-neolactotetraosylceramide variants; set-up: species or system Escherichia coli; settings: dilution series of glycolipids
Method: (§4) Glycosphingolipid Binding Assays—Binding of ^35S-labeled bacteria to glycosphingolipids on thin-layer chromatograms was done as reported (7). Dried chromatograms were dipped for 1 min in diethylether/n-hexane (1:5, by volume) containing 0.5% (w/v) polyisobutylmethacrylate (Aldrich Chem. Comp. Inc., Milwaukee, Wis.). After drying, the chromatograms were soaked in PBS containing 2% bovine serum albumin (w/v), 0.1% NaN3 (w/v) and 0.1% Tween 20 (by volume) for 2 h at room temperature. The chromatograms were subsequentely covered with radiolabeled bacteria diluted in PBS (2-5×10^6 cpm/ml). Incubation was done for 2 h at room temperature, followed by repeated washings with PBS. The chromatograms were thereafter autoradiographed using XAR-5 X-ray films (Eastman Kodak, Rochester, N.Y.) for 12 h. Autoradiograms were replicated using a CCD camera (Dage-MTI, Inc., Michigan City, Ind.), and analysis of the images was performed using the public domain NIH Image program (developed at the U.S. National Institutes of Health, and available at http://rsb.info.nih.eov/nih-imaee/).
To dissect the sialic acid binding preferences of diarrheagenic E. coli, the binding of bacteria to variants of sialyl-neoleactotetraosylceramide was compared. […] The comparison was performed by using dilution series of glycolipids and comparing the disappearence of the bindings when the amounts of glycolipids were reduced.

E. coli EIEC CCUG 38092 = assay: Chromatogram binding assay, binding specificities of type strains; set-up: species or system Escherichia coli; settings: prolonged sub-culture, 4 μg per lane
Method: Culture Conditions and Labeling—The E. coli strains were cultured on Luria-agar with the addition of 10 μl ^35S-methionine (400 tici; Amersham Pharmacia Biotech, U.K.) at 37° C. for 12 h. The bacteria were harvested by scraping, washed three times with phosphate-buffered saline (PBS), pH 7.3, and thereafter resuspended in PBS (with or without 1% mannose (w/v)) to 1×10^8 CFU/ml. The specific activities of the suspensions were approximately 1 cpm per 100 bacteria.
Thin-Layer Chromatography—Thin-layer chromatography of glycosphingolipids was performed on glass- or aluminum-backed silica gel 60 HPTLC plates (Merck, Darmstadt, Germany), using chloroform/methanol/water 60:35:8 (by volume) as solvent system. Chemical detection was done with anisaldehyde (6).
as §4
However, several wild type diarrheagenic E. coli strains bind to sialic acid (see e.g. FIG. 6 and FIG. 3). […]

[4] = both gastric and enterohepatic Helicobacter spp. tested

| Compound | Binding of glycosphingolipids to H.canis 33835 (H. canis CCUG 33835) | Binding of glycosphingolipids to H.hepaticus 33637 (H. hepaticus CCUG 33637) | Binding of glycosphingolipids to H.pylori 17875 (H. pylori CCUG 17875) | Binding of glycosphingolipids to H.pylori 17874 (H. pylori CCUG 17874) | Binding of glycosphingolipids to H.bilis 38995 (H. bilis CCUG 38995) | Binding of glycosphingolipids to H.felis 28539 (H. felis CCUG 28539) | Binding of glycosphingolipids to H.mustelae 25715 (H. mustelae 25715) | Binding of glycosphingolipids to H.mustelae 23950 & 23951 [1] | Inhibition of binding of an ETEC and an EPEC strain to Caco-2 cells [2] | Binding of an EPEC strain to commercial glycolipids (EPEC strain) | Binding of Helicobacter spp. to glycosphingolipid, in words [3, 4] | Relative binding affinity, order by disappearance of binding in dilution series (diarrheagenic E. coli) | Binding of E. coli CCUG 38092 to pure glycosphingolipids after sub-culture (E. coli EIEC CCUG 38092; listed as isoglobotriaosylceramide) | Binding of E. coli CCUG 38092 to pure glycosphingolipids after sub-culture (E. coli EIEC CCUG 38092) | Binding of Helicobacter spp. to glycosphingolipid, in words ([3]; H. felis, H. canis, H. hepaticus and H. bilis) |
| --- | --- | --- | --- | --- | --- | --- | --- | --- | --- | --- | --- | --- | --- | --- | --- |
| NeuGcα3Galβ4GlcNAcβ3Galβ4GlcNAcβ3Galβ4Glcβ1Cer [No. 36] | + | + | + | + | + | + | + | + | – | – | – | – | – | – | – |
| CC(=O)N[C@H]1[C@H]([C@H](O)[C@H](O)CO)OC(O)(C(=O)O)C[C@@H]1O (some centres unmarked) [N-acetylneuraminic acid] | – | – | – | – | – | – | – | – | negative | – | – | – | – | – | – |
| Galβ3GalNAcβ4(NeuAcα3)Galβ4Glcβ1Cer [No. 29] | – | – | – | – | – | – | – | – | inhibiting | – | – | – | – | – | – |
| lactosylceramide | – | – | – | – | – | – | – | – | negative | negative | – | – | – | – | – |
| Galβ4Glcβ1Cer [No. 5] | + | + | + | + | + | + | + | + | – | – | capable of binding | – | – | – | – |
| Galβ3GlcNAcβ3Galβ4Glcβ1Cer [No. 23] | + | + | + | + | + | + | + | + | – | – | capable of binding | – | – | – | – |
| NeuGcα3Galβ4GlcNAcβ3Galβ4Glcβ1Cer [No. 33] | – | – | – | – | – | – | – | – | – | – | – | highest affinity | – | – | – |
| Galα3Galβ4Glcβ1Cer [No. 7] | + | + | + | + | + | + | + | + | – | – | capable of binding | – | Selective loss of binding | – | – |
| Galβ3GalNAcβ4Galβ4Glcβ1Cer [No. 11] | + | + | + | + | + | + | + | + | – | observed to bind | – | – | – | remain | binding was demonstrated |
| NeuAcα3Galβ4GlcNAcβ3Galβ4Glcβ1Cer [No. 31] | – | – | – | – | – | – | – | – | – | – | – | finally | – | – | – |
